{
  "source": "ChEMBL document CHEMBL4627246",
  "about": "“Pyroglutamide-Based P2X7 Receptor Antagonists Targeting Inflammatory Bowel Disease” (J Med Chem, 2020)",
  "data": [
    {"system": "SW-620", "experiment": "Cytotoxicity against human SW620 cells assessed as effect on cell growth at 10 uM incubated for 48 hrs by sulforhodamine B assay", "format": "cell-based", "details": "sw-620, 48 h", "values": [
      {"smiles": "CN1C(=O)C(C)(C)C[C@H]1C(=O)NCc1cccc(C(F)(F)F)c1Cl", "Activity": "Non-Toxic"},
      {"smiles": "O=C(NCc1ccc(Cl)cc1Cl)[C@@H]1CCC(=O)N1Cc1ccccc1", "Activity": "Non-Toxic"},
      {"smiles": "COc1ccc(N2C(=O)CC[C@H]2C(=O)NCc2ccc(Cl)cc2Cl)cc1", "Activity": "Non-Toxic"}
    ]},
    {"system": "DU-145", "experiment": "Cytotoxicity against human DU145 cells assessed as effect on cell growth at 10 uM incubated for 48 hrs by sulforhodamine B assay", "format": "cell-based", "details": "du-145, 48 h", "values": [
      {"smiles": "CN1C(=O)C(C)(C)C[C@H]1C(=O)NCc1cccc(C(F)(F)F)c1Cl", "Activity": "Non-Toxic"},
      {"smiles": "O=C(NCc1ccc(Cl)cc1Cl)[C@@H]1CCC(=O)N1Cc1ccccc1", "Activity": "Non-Toxic"},
      {"smiles": "COc1ccc(N2C(=O)CC[C@H]2C(=O)NCc2ccc(Cl)cc2Cl)cc1", "Activity": "Non-Toxic"}
    ]},
    {"system": "A549", "experiment": "Cytotoxicity against human A549/ATCC cells assessed as effect on cell growth at 10 uM incubated for 48 hrs by sulforhodamine B assay", "format": "cell-based", "details": "a549, 48 h", "values": [
      {"smiles": "CN1C(=O)C(C)(C)C[C@H]1C(=O)NCc1cccc(C(F)(F)F)c1Cl", "Activity": "Non-Toxic"},
      {"smiles": "O=C(NCc1ccc(Cl)cc1Cl)[C@@H]1CCC(=O)N1Cc1ccccc1", "Activity": "Non-Toxic"},
      {"smiles": "COc1ccc(N2C(=O)CC[C@H]2C(=O)NCc2ccc(Cl)cc2Cl)cc1", "Activity": "Non-Toxic"}
    ]},
    {"system": "786-0", "experiment": "Cytotoxicity against human 786-0 cells assessed as effect on cell growth at 10 uM incubated for 48 hrs by sulforhodamine B assay", "format": "cell-based", "details": "786-0, 48 h", "values": [
      {"smiles": "CN1C(=O)C(C)(C)C[C@H]1C(=O)NCc1cccc(C(F)(F)F)c1Cl", "Activity": "Non-Toxic"},
      {"smiles": "O=C(NCc1ccc(Cl)cc1Cl)[C@@H]1CCC(=O)N1Cc1ccccc1", "Activity": "Non-Toxic"},
      {"smiles": "COc1ccc(N2C(=O)CC[C@H]2C(=O)NCc2ccc(Cl)cc2Cl)cc1", "Activity": "Non-Toxic"}
    ]},
    {"system": "EKVX", "experiment": "Cytotoxicity against human EKVX cells assessed as effect on cell growth at 10 uM incubated for 48 hrs by sulforhodamine B assay", "format": "cell-based", "details": "not given", "values": [
      {"smiles": "CN1C(=O)C(C)(C)C[C@H]1C(=O)NCc1cccc(C(F)(F)F)c1Cl", "Activity": "Non-Toxic"},
      {"smiles": "O=C(NCc1ccc(Cl)cc1Cl)[C@@H]1CCC(=O)N1Cc1ccccc1", "Activity": "Non-Toxic"},
      {"smiles": "COc1ccc(N2C(=O)CC[C@H]2C(=O)NCc2ccc(Cl)cc2Cl)cc1", "Activity": "Non-Toxic"}
    ]},
    {"system": "SR", "experiment": "Cytotoxicity against human SR cells assessed as effect on cell growth at 10 uM incubated for 48 hrs by sulforhodamine B assay", "format": "cell-based", "details": "not given", "values": [
      {"smiles": "CN1C(=O)C(C)(C)C[C@H]1C(=O)NCc1cccc(C(F)(F)F)c1Cl", "Activity": "Non-Toxic"},
      {"smiles": "O=C(NCc1ccc(Cl)cc1Cl)[C@@H]1CCC(=O)N1Cc1ccccc1", "Activity": "Non-Toxic"},
      {"smiles": "COc1ccc(N2C(=O)CC[C@H]2C(=O)NCc2ccc(Cl)cc2Cl)cc1", "Activity": "Non-Toxic"}
    ]},
    {"system": "OVCAR-5", "experiment": "Cytotoxicity against human OVCAR5 cells assessed as effect on cell growth at 10 uM incubated for 48 hrs by sulforhodamine B assay", "format": "cell-based", "details": "ovcar-5, 48 h", "values": [
      {"smiles": "CN1C(=O)C(C)(C)C[C@H]1C(=O)NCc1cccc(C(F)(F)F)c1Cl", "Activity": "Non-Toxic"},
      {"smiles": "O=C(NCc1ccc(Cl)cc1Cl)[C@@H]1CCC(=O)N1Cc1ccccc1", "Activity": "Non-Toxic"},
      {"smiles": "COc1ccc(N2C(=O)CC[C@H]2C(=O)NCc2ccc(Cl)cc2Cl)cc1", "Activity": "Non-Toxic"}
    ]},
    {"system": "UO-31", "experiment": "Cytotoxicity against human UO31 cells assessed as effect on cell growth at 10 uM incubated for 48 hrs by sulforhodamine B assay", "format": "cell-based", "details": "uo-31, 48 h", "values": [
      {"smiles": "CN1C(=O)C(C)(C)C[C@H]1C(=O)NCc1cccc(C(F)(F)F)c1Cl", "Activity": "Non-Toxic"},
      {"smiles": "O=C(NCc1ccc(Cl)cc1Cl)[C@@H]1CCC(=O)N1Cc1ccccc1", "Activity": "Non-Toxic"},
      {"smiles": "COc1ccc(N2C(=O)CC[C@H]2C(=O)NCc2ccc(Cl)cc2Cl)cc1", "Activity": "Non-Toxic"}
    ]},
    {"system": "ACHN", "experiment": "Cytotoxicity against human ACHN cells assessed as effect on cell growth at 10 uM incubated for 48 hrs by sulforhodamine B assay", "format": "cell-based", "details": "not given", "values": [
      {"smiles": "CN1C(=O)C(C)(C)C[C@H]1C(=O)NCc1cccc(C(F)(F)F)c1Cl", "Activity": "Non-Toxic"},
      {"smiles": "O=C(NCc1ccc(Cl)cc1Cl)[C@@H]1CCC(=O)N1Cc1ccccc1", "Activity": "Non-Toxic"},
      {"smiles": "COc1ccc(N2C(=O)CC[C@H]2C(=O)NCc2ccc(Cl)cc2Cl)cc1", "Activity": "Non-Toxic"}
    ]},
    {"system": "SK-OV-3", "experiment": "Cytotoxicity against human SKOV3 cells assessed as effect on cell growth at 10 uM incubated for 48 hrs by sulforhodamine B assay", "format": "cell-based", "details": "sk-ov-3, 48 h", "values": [
      {"smiles": "CN1C(=O)C(C)(C)C[C@H]1C(=O)NCc1cccc(C(F)(F)F)c1Cl", "Activity": "Non-Toxic"},
      {"smiles": "O=C(NCc1ccc(Cl)cc1Cl)[C@@H]1CCC(=O)N1Cc1ccccc1", "Activity": "Non-Toxic"},
      {"smiles": "COc1ccc(N2C(=O)CC[C@H]2C(=O)NCc2ccc(Cl)cc2Cl)cc1", "Activity": "Non-Toxic"}
    ]},
    {"system": "M14", "experiment": "Cytotoxicity against human M14 cells assessed as effect on cell growth at 10 uM incubated for 48 hrs by sulforhodamine B assay", "format": "cell-based", "details": "m14, 48 h", "values": [
      {"smiles": "CN1C(=O)C(C)(C)C[C@H]1C(=O)NCc1cccc(C(F)(F)F)c1Cl", "Activity": "Non-Toxic"},
      {"smiles": "O=C(NCc1ccc(Cl)cc1Cl)[C@@H]1CCC(=O)N1Cc1ccccc1", "Activity": "Non-Toxic"},
      {"smiles": "COc1ccc(N2C(=O)CC[C@H]2C(=O)NCc2ccc(Cl)cc2Cl)cc1", "Activity": "Non-Toxic"}
    ]},
    {"system": "SF-295", "experiment": "Cytotoxicity against human SF295 cells assessed as effect on cell growth at 10 uM incubated for 48 hrs by sulforhodamine B assay", "format": "cell-based", "details": "sf-295, 48 h", "values": [
      {"smiles": "CN1C(=O)C(C)(C)C[C@H]1C(=O)NCc1cccc(C(F)(F)F)c1Cl", "Activity": "Non-Toxic"},
      {"smiles": "O=C(NCc1ccc(Cl)cc1Cl)[C@@H]1CCC(=O)N1Cc1ccccc1", "Activity": "Non-Toxic"},
      {"smiles": "COc1ccc(N2C(=O)CC[C@H]2C(=O)NCc2ccc(Cl)cc2Cl)cc1", "Activity": "Non-Toxic"}
    ]},
    {"system": "RPMI-8226", "experiment": "Cytotoxicity against human RPMI8226 cells assessed as effect on cell growth at 10 uM incubated for 48 hrs by sulforhodamine B assay", "format": "cell-based", "details": "rpmi-8226, 48 h", "values": [
      {"smiles": "CN1C(=O)C(C)(C)C[C@H]1C(=O)NCc1cccc(C(F)(F)F)c1Cl", "Activity": "Non-Toxic"},
      {"smiles": "O=C(NCc1ccc(Cl)cc1Cl)[C@@H]1CCC(=O)N1Cc1ccccc1", "Activity": "Non-Toxic"},
      {"smiles": "COc1ccc(N2C(=O)CC[C@H]2C(=O)NCc2ccc(Cl)cc2Cl)cc1", "Activity": "Non-Toxic"}
    ]},
    {"system": "HL-60(TB)", "experiment": "Cytotoxicity against human HL-60(TB) cells assessed as effect on cell growth at 10 uM incubated for 48 hrs by sulforhodamine B assay", "format": "cell-based", "details": "not given", "values": [
      {"smiles": "CN1C(=O)C(C)(C)C[C@H]1C(=O)NCc1cccc(C(F)(F)F)c1Cl", "Activity": "Non-Toxic"},
      {"smiles": "O=C(NCc1ccc(Cl)cc1Cl)[C@@H]1CCC(=O)N1Cc1ccccc1", "Activity": "Non-Toxic"},
      {"smiles": "COc1ccc(N2C(=O)CC[C@H]2C(=O)NCc2ccc(Cl)cc2Cl)cc1", "Activity": "Non-Toxic"}
    ]},
    {"system": "A498", "experiment": "Cytotoxicity against human A498 cells assessed as effect on cell growth at 10 uM incubated for 48 hrs by sulforhodamine B assay", "format": "cell-based", "details": "a498, 48 h", "values": [
      {"smiles": "CN1C(=O)C(C)(C)C[C@H]1C(=O)NCc1cccc(C(F)(F)F)c1Cl", "Activity": "Non-Toxic"},
      {"smiles": "O=C(NCc1ccc(Cl)cc1Cl)[C@@H]1CCC(=O)N1Cc1ccccc1", "Activity": "Non-Toxic"},
      {"smiles": "COc1ccc(N2C(=O)CC[C@H]2C(=O)NCc2ccc(Cl)cc2Cl)cc1", "Activity": "Non-Toxic"}
    ]},
    {"system": "NCI-H460", "experiment": "Cytotoxicity against human NCI-H460 cells assessed as effect on cell growth at 10 uM incubated for 48 hrs by sulforhodamine B assay", "format": "cell-based", "details": "nci-h460, 48 h", "values": [
      {"smiles": "CN1C(=O)C(C)(C)C[C@H]1C(=O)NCc1cccc(C(F)(F)F)c1Cl", "Activity": "Non-Toxic"},
      {"smiles": "O=C(NCc1ccc(Cl)cc1Cl)[C@@H]1CCC(=O)N1Cc1ccccc1", "Activity": "Non-Toxic"},
      {"smiles": "COc1ccc(N2C(=O)CC[C@H]2C(=O)NCc2ccc(Cl)cc2Cl)cc1", "Activity": "Non-Toxic"}
    ]},
    {"system": "HCT-15", "experiment": "Cytotoxicity against human HCT15 cells assessed as effect on cell growth at 10 uM incubated for 48 hrs by sulforhodamine B assay", "format": "cell-based", "details": "hct-15, 48 h", "values": [
      {"smiles": "CN1C(=O)C(C)(C)C[C@H]1C(=O)NCc1cccc(C(F)(F)F)c1Cl", "Activity": "Non-Toxic"},
      {"smiles": "O=C(NCc1ccc(Cl)cc1Cl)[C@@H]1CCC(=O)N1Cc1ccccc1", "Activity": "Non-Toxic"},
      {"smiles": "COc1ccc(N2C(=O)CC[C@H]2C(=O)NCc2ccc(Cl)cc2Cl)cc1", "Activity": "Non-Toxic"}
    ]},
    {"system": "KM12", "experiment": "Cytotoxicity against human KM12 cells assessed as effect on cell growth at 10 uM incubated for 48 hrs by sulforhodamine B assay", "format": "cell-based", "details": "km12, 48 h", "values": [
      {"smiles": "CN1C(=O)C(C)(C)C[C@H]1C(=O)NCc1cccc(C(F)(F)F)c1Cl", "Activity": "Non-Toxic"},
      {"smiles": "O=C(NCc1ccc(Cl)cc1Cl)[C@@H]1CCC(=O)N1Cc1ccccc1", "Activity": "Non-Toxic"},
      {"smiles": "COc1ccc(N2C(=O)CC[C@H]2C(=O)NCc2ccc(Cl)cc2Cl)cc1", "Activity": "Non-Toxic"}
    ]},
    {"system": "MOLT-4", "experiment": "Cytotoxicity against human MOLT4 cells assessed as effect on cell growth at 10 uM incubated for 48 hrs by sulforhodamine B assay", "format": "cell-based", "details": "molt-4, 48 h", "values": [
      {"smiles": "CN1C(=O)C(C)(C)C[C@H]1C(=O)NCc1cccc(C(F)(F)F)c1Cl", "Activity": "Non-Toxic"},
      {"smiles": "O=C(NCc1ccc(Cl)cc1Cl)[C@@H]1CCC(=O)N1Cc1ccccc1", "Activity": "Non-Toxic"},
      {"smiles": "COc1ccc(N2C(=O)CC[C@H]2C(=O)NCc2ccc(Cl)cc2Cl)cc1", "Activity": "Non-Toxic"}
    ]},
    {"system": "SF-539", "experiment": "Cytotoxicity against human SF539 cells assessed as effect on cell growth at 10 uM incubated for 48 hrs by sulforhodamine B assay", "format": "cell-based", "details": "sf-539, 48 h", "values": [
      {"smiles": "CN1C(=O)C(C)(C)C[C@H]1C(=O)NCc1cccc(C(F)(F)F)c1Cl", "Activity": "Non-Toxic"},
      {"smiles": "O=C(NCc1ccc(Cl)cc1Cl)[C@@H]1CCC(=O)N1Cc1ccccc1", "Activity": "Non-Toxic"},
      {"smiles": "COc1ccc(N2C(=O)CC[C@H]2C(=O)NCc2ccc(Cl)cc2Cl)cc1", "Activity": "Non-Toxic"}
    ]}
  ]
}
